Numbers after ± are expanded uncertainties.
Details: 100 kPa, Liquid; for viscosity: Falling or rolling sphere viscometry; for mass density: Vibrating tube method

viscosity (293.15 K)	mass density (293.15 K)	viscosity (298.15 K)	mass density (298.15 K)	viscosity (303.15 K)	mass density (303.15 K)	viscosity (308.15 K)	mass density (308.15 K)	viscosity (313.15 K)	mass density (313.15 K)	viscosity (318.15 K)	mass density (318.15 K)	viscosity (323.15 K)	mass density (323.15 K)	viscosity (328.15 K)	mass density (328.15 K)	viscosity (333.15 K)	mass density (333.15 K)	Compound
3.75 ± 0.08 mPa·s	901.57 ± 0.55 kg/m3	3.34 ± 0.071 mPa·s	898 ± 0.54 kg/m3	2.997 ± 0.064 mPa·s	894.43 ± 0.54 kg/m3	2.702 ± 0.057 mPa·s	890.86 ± 0.54 kg/m3	2.45 ± 0.052 mPa·s	887.29 ± 0.54 kg/m3	2.231 ± 0.047 mPa·s	883.71 ± 0.54 kg/m3	2.039 ± 0.043 mPa·s	880.13 ± 0.53 kg/m3	1.871 ± 0.04 mPa·s	876.55 ± 0.53 kg/m3	1.722 ± 0.037 mPa·s	872.96 ± 0.53 kg/m3	CC12CC3CC(C1)CC(C)(C3)C2 [1,3-dimethyladamantane]
11.72 ± 0.25 mPa·s	947.04 ± 0.57 kg/m3	9.6 ± 0.2 mPa·s	943.08 ± 0.57 kg/m3	7.891 ± 0.17 mPa·s	939.08 ± 0.57 kg/m3	6.564 ± 0.14 mPa·s	935.03 ± 0.56 kg/m3	5.509 ± 0.12 mPa·s	930.92 ± 0.56 kg/m3	4.657 ± 0.099 mPa·s	926.76 ± 0.56 kg/m3	3.97 ± 0.084 mPa·s	922.53 ± 0.56 kg/m3	3.409 ± 0.072 mPa·s	918.24 ± 0.55 kg/m3	2.945 ± 0.063 mPa·s	913.89 ± 0.55 kg/m3	OC1CCCC1 [cyclopentanol]
3.017 ± 0.068 mPa·s	935.88 ± 0.7 kg/m3	2.731 ± 0.061 mPa·s	932 ± 0.69 kg/m3	2.488 ± 0.056 mPa·s	928.08 ± 0.69 kg/m3	2.273 ± 0.051 mPa·s	924.16 ± 0.69 kg/m3	2.087 ± 0.047 mPa·s	920.24 ± 0.68 kg/m3	1.922 ± 0.043 mPa·s	916.31 ± 0.68 kg/m3	1.776 ± 0.04 mPa·s	912.38 ± 0.68 kg/m3	1.646 ± 0.037 mPa·s	908.44 ± 0.68 kg/m3	1.53 ± 0.034 mPa·s	904.5 ± 0.67 kg/m3	C1C[C@@H]2[C@H]3CC[C@H](C3)[C@@H]2C1 [exo-tetrahydrodicyclopentadiene]

— the NIST ThermoML archive (doi:10.1021/acs.jced.9b00074)
